Measurements from ChEMBL document CHEMBL1152983, “Substitution of the arginine/leucine residues in apidaecin Ib with peptoid residues: effect on antimicrobial activity, cellular uptake, and proteolytic degradation” (J Med Chem, 2009).
Converted amounts (≈) assume the structure as drawn. Starred links: 1 amine or outer side, 2 acyl side, 3 side chain; linkers in the order of their positions; H or OH if unused. Non-standard residues stand in square brackets, D forms with d. Residues, ends and D or L forms follow the SMILES beside them. Gly(N-(CH2)3-guanidino) = N=C(N)NCCCNCC(=O)O; X1 = N=C(N)NCCN(CC(=O)[*:2])[*:1]; NhArg = N=C(N)NCCCCNCC(=O)O

How the values were obtained:
[1] = Membrane permeabilization in eukaryotic membrane model consisting of single unilamellar vesicle of L-alpha-phosphatidylcholine-cholesterol assessed as 5(6)-carboxyfluorescein release at high peptide-to-lipid ratio after 50 mins by fluorescence assay; format: ADME, cell membranes
Escherichia coli [2] = experiment: Antimicrobial activity against Escherichia coli ATCC 25922 after 18 hrs by broth microdilution susceptibility test; format: functional; details: ATCC 25922, 18 h
[3] = Toxicity in human erythrocytes assessed as hemolytic activity at 30 uM after 60 mins; format: cell-based, Erythrocyte; details: read-out: Activity
[4] = test system: Salmonella enterica subsp. enterica; experiment: Antimicrobial activity against Salmonella Typhimurium ATCC 14028 after 18 hrs by broth microdilution susceptibility test; format: functional, Salmonella enterica subsp. enterica serovar Typhimurium; details: ATCC 14028, 18 h
Klebsiella pneumoniae = experiment: Antimicrobial activity against Klebsiella pneumoniae 22 after 18 hrs by broth microdilution susceptibility test; format: functional; details: Klebsiella pneumoniae, 22, 18 h
[5] = Membrane permeabilization in eukaryotic membrane model consisting of single unilamellar vesicle of L-alpha-phosphatidylcholine-cholesterol assessed as 5(6)-carboxyfluorescein release at high peptide-to-lipid ratio after 20 mins by fluorescence assay; format: ADME, cell membranes
Escherichia coli [6] = experiment: Antimicrobial activity against Escherichia coli O18K1H7 after 18 hrs by broth microdilution susceptibility test; format: functional; details: O18K1H7, 18 h
Escherichia coli [7] = experiment: Antimicrobial activity against Escherichia coli ML35 after 18 hrs by broth microdilution susceptibility test; format: functional; details: ML35, 18 h
[8] = test system: Salmonella enterica subsp. enterica; experiment: Antimicrobial activity against Salmonella enteritidis PD1 after 18 hrs by broth microdilution susceptibility test; format: functional, Salmonella enterica subsp. enterica serovar Enteritidis; details: PD1, 18 h
[9] = Chemical stability assessed as compound degradation at 2 mg/mL after 24 hrs by HPLC and ESI-MS analysis in presence of trypsin; format: physicochemical; details: isolated protein
[10] = test system: Salmonella enterica subsp. enterica; experiment: Antimicrobial activity against Salmonella enteritidis D5 after 18 hrs by broth microdilution susceptibility test; format: functional, Salmonella enterica subsp. enterica serovar Enteritidis; details: D5, 18 h
[11] = Toxicity in human erythrocytes assessed as hemolytic activity at 300 uM after 60 mins; format: cell-based, Erythrocyte; details: read-out: Activity
[12] = Chemical stability assessed as compound degradation at 2 mg/mL within 30 mins by HPLC and ESI-MS analysis in presence of trypsin; format: physicochemical; details: isolated protein, 0.5 h

| Activity [1] | MIC (Escherichia coli [2]) [µM] | MIC [4] [µM] | MIC (Klebsiella pneumoniae) [µM] | Activity [5] | MIC (Escherichia coli [6]) [µM] | MIC (Escherichia coli [7]) [µM] | MIC [8] [µM] | Stability [9] | MIC [10] [µM] | Stability [12] | Structure (SMILES) | hemolysis at 1 h, 30 µM [3] [%] | hemolysis at 1 h, 300 µM [11] [%] |
| --- | --- | --- | --- | --- | --- | --- | --- | --- | --- | --- | --- | --- | --- |
| Not Active | 128 (≈ 257 µg/mL) | > 128 | > 128 | Not Active |  |  |  |  |  |  | CC[C@H](C)[C@H](NC(=O)[C@H](Cc1ccc(O)cc1)NC(=O)[C@@H](NC(=O)[C@@H]1CCCN1C(=O)[C@H](CCCNC(=N)N)NC(=O)[C@H](CC(N)=O)NC(=O)[C@H](CC(N)=O)NC(=O)CN)C(C)C)C(=O)N1CCC[C@H]1C(=O)N[C@@H](CCC(N)=O)C(=O)N1CCC[C@H]1C(=O)N[C@@H](CCCNC(=N)N)C(=O)N1CCC[C@H]1C(=O)N[C@@H](Cc1cnc[nH]1)C(=O)N1CCC[C@H]1C(=O)N[C@@H](CCCNC(=N)N)C(=O)N[C@@H](CC(C)C)C(=O)O (H-GNNRPVYIPQPRPHPRL-OH) | ≤ 2 |  |
| Not Active | > 128 | > 128 | > 128 | Not Active | > 128 | > 128 | > 128 | Stable | > 128 |  | CC[C@H](C)[C@H](NC(=O)[C@H](Cc1ccc(O)cc1)NC(=O)[C@@H](NC(=O)[C@@H]1CCCN1C(=O)[C@H](CCCNC(=N)N)NC(=O)[C@H](CC(N)=O)NC(=O)[C@H](CC(N)=O)NC(=O)CN)C(C)C)C(=O)N1CCC[C@H]1C(=O)N[C@@H](CCC(N)=O)C(=O)N1CCC[C@H]1C(=O)N[C@@H](CCCNC(=N)N)C(=O)N1CCC[C@H]1C(=O)N1CCC[C@H]1C(=O)N[C@@H](Cc1cnc[nH]1)C(=O)N1CCC[C@H]1C(=O)N(CCCNC(=N)N)CC(=O)N[C@@H](CC(C)C)C(=O)O (H-GNNRPVYIPQPRPPHP[Gly(N-(CH2)3-guanidino)]L-OH) | ≤ 2 | 0.44 |
| Not Active | > 128 | > 128 | > 128 | Not Active | > 128 | > 128 | > 128 |  | > 128 |  | CC[C@H](C)[C@H](NC(=O)[C@H](Cc1ccc(O)cc1)NC(=O)[C@@H](NC(=O)[C@@H]1CCCN1C(=O)[C@H](CCCNC(=N)N)NC(=O)[C@H](CC(N)=O)NC(=O)[C@H](CC(N)=O)NC(=O)CN)C(C)C)C(=O)N1CCC[C@H]1C(=O)N[C@@H](CCC(N)=O)C(=O)N1CCC[C@H]1C(=O)N[C@@H](CCCNC(=N)N)C(=O)N1CCC[C@H]1C(=O)N1CCC[C@H]1C(=O)N[C@@H](Cc1cnc[nH]1)C(=O)N1CCC[C@H]1C(=O)N(CCCCNC(=N)N)CC(=O)N[C@@H](CC(C)C)C(=O)O (H-GNNRPVYIPQPRPPHP[NhArg]L-OH) | ≤ 2 | 0.81 |
| Not Active | > 128 | > 128 | > 128 | Not Active | > 128 | > 128 | > 128 |  | > 128 |  | CC[C@H](C)[C@H](NC(=O)[C@H](Cc1ccc(O)cc1)NC(=O)[C@@H](NC(=O)[C@@H]1CCCN1C(=O)[C@H](CCCNC(=N)N)NC(=O)[C@H](CC(N)=O)NC(=O)[C@H](CC(N)=O)NC(=O)CN)C(C)C)C(=O)N1CCC[C@H]1C(=O)N[C@@H](CCC(N)=O)C(=O)N1CCC[C@H]1C(=O)N[C@@H](CCCNC(=N)N)C(=O)N1CCC[C@H]1C(=O)N1CCC[C@H]1C(=O)N[C@@H](Cc1cnc[nH]1)C(=O)N1CCC[C@H]1C(=O)N(CCNC(=N)N)CC(=O)N[C@@H](CC(C)C)C(=O)O (H-GNNRPVYIPQPRPPHP[X1]L-OH) | ≤ 2 | 0.62 |
| Not Active | 16 (≈ 33.7 µg/mL) | 16 (≈ 33.7 µg/mL) | > 128 | Not Active | 16 (≈ 33.7 µg/mL) | 16 (≈ 33.7 µg/mL) | 32 (≈ 67.5 µg/mL) |  | 16 (≈ 33.7 µg/mL) |  | CC[C@H](C)[C@H](NC(=O)[C@H](Cc1ccc(O)cc1)NC(=O)[C@@H](NC(=O)[C@@H]1CCCN1C(=O)[C@H](CCCNC(=N)N)NC(=O)[C@H](CC(N)=O)NC(=O)[C@H](CC(N)=O)NC(=O)CN)C(C)C)C(=O)N1CCC[C@H]1C(=O)N[C@@H](CCC(N)=O)C(=O)N1CCC[C@H]1C(=O)N(CCCNC(=N)N)CC(=O)N1CCC[C@H]1C(=O)N1CCC[C@H]1C(=O)N[C@@H](Cc1cnc[nH]1)C(=O)N1CCC[C@H]1C(=O)N[C@@H](CCCNC(=N)N)C(=O)N[C@@H](CC(C)C)C(=O)O (H-GNNRPVYIPQP[Gly(N-(CH2)3-guanidino)]PPHPRL-OH) | ≤ 2 | 2 |
| Not Active | 32 (≈ 64.8 µg/mL) | 32 (≈ 64.8 µg/mL) | > 128 | Not Active | 32 (≈ 64.8 µg/mL) | 16 (≈ 32.4 µg/mL) | 64 (≈ 130 µg/mL) |  | 64 (≈ 130 µg/mL) |  | CC[C@H](C)[C@H](NC(=O)[C@H](Cc1ccc(O)cc1)NC(=O)[C@@H](NC(=O)[C@@H]1CCCN1C(=O)[C@H](CCCNC(=N)N)NC(=O)[C@H](CC(N)=O)NC(=O)[C@H](CC(N)=O)NC(=O)CN)C(C)C)C(=O)N1CCC[C@H]1C(=O)N[C@@H](CCC(N)=O)C(=O)N1CCC[C@H]1C(=O)N(CCCCNC(=N)N)CC(=O)N1CCC[C@H]1C(=O)N[C@@H](Cc1cnc[nH]1)C(=O)N1CCC[C@H]1C(=O)N[C@@H](CCCNC(=N)N)C(=O)N[C@@H](CC(C)C)C(=O)O (H-GNNRPVYIPQP[NhArg]PHPRL-OH) | ≤ 2 | 1.31 |
| Not Active | 32 (≈ 67 µg/mL) | 32 (≈ 67 µg/mL) | > 128 | Not Active | 32 (≈ 67 µg/mL) | 16 (≈ 33.5 µg/mL) | 64 (≈ 134 µg/mL) |  | 64 (≈ 134 µg/mL) |  | CC[C@H](C)[C@H](NC(=O)[C@H](Cc1ccc(O)cc1)NC(=O)[C@@H](NC(=O)[C@@H]1CCCN1C(=O)[C@H](CCCNC(=N)N)NC(=O)[C@H](CC(N)=O)NC(=O)[C@H](CC(N)=O)NC(=O)CN)C(C)C)C(=O)N1CCC[C@H]1C(=O)N[C@@H](CCC(N)=O)C(=O)N1CCC[C@H]1C(=O)N(CCNC(=N)N)CC(=O)N1CCC[C@H]1C(=O)N1CCC[C@H]1C(=O)N[C@@H](Cc1cnc[nH]1)C(=O)N1CCC[C@H]1C(=O)N[C@@H](CCCNC(=N)N)C(=O)N[C@@H](CC(C)C)C(=O)O (H-GNNRPVYIPQP[X1]PPHPRL-OH) | ≤ 2 | 0.87 |
| Not Active | > 128 | > 128 | > 128 | Not Active |  |  |  |  |  |  | CC[C@H](C)[C@H](NC(=O)[C@H](Cc1ccc(O)cc1)NC(=O)[C@@H](NC(=O)[C@H](CCCNC(=N)N)NC(=O)[C@H](CC(N)=O)NC(=O)[C@H](CC(N)=O)NC(=O)CN)C(C)C)C(=O)N1CCC[C@H]1C(=O)N[C@@H](CCC(N)=O)C(=O)N1CCC[C@H]1C(=O)N[C@@H](CCCNC(=N)N)C(=O)N1CCC[C@H]1C(=O)N[C@@H](Cc1cnc[nH]1)C(=O)N1CCC[C@H]1C(=O)N[C@@H](CCCNC(=N)N)C(=O)N[C@@H](CC(C)C)C(=O)O (H-GNNRVYIPQPRPHPRL-OH) | ≤ 2 |  |
| Not Active | 16 (≈ 33.7 µg/mL) | 16 (≈ 33.7 µg/mL) | > 128 | Not Active | 16 (≈ 33.7 µg/mL) | 16 (≈ 33.7 µg/mL) | 32 (≈ 67.5 µg/mL) |  | 32 (≈ 67.5 µg/mL) |  | CC[C@H](C)[C@H](NC(=O)[C@H](Cc1ccc(O)cc1)NC(=O)[C@@H](NC(=O)[C@@H]1CCCN1C(=O)CN(CCCNC(=N)N)C(=O)[C@H](CC(N)=O)NC(=O)[C@H](CC(N)=O)NC(=O)CN)C(C)C)C(=O)N1CCC[C@H]1C(=O)N[C@@H](CCC(N)=O)C(=O)N1CCC[C@H]1C(=O)N[C@@H](CCCNC(=N)N)C(=O)N1CCC[C@H]1C(=O)N1CCC[C@H]1C(=O)N[C@@H](Cc1cnc[nH]1)C(=O)N1CCC[C@H]1C(=O)N[C@@H](CCCNC(=N)N)C(=O)N[C@@H](CC(C)C)C(=O)O (H-GNN[Gly(N-(CH2)3-guanidino)]PVYIPQPRPPHPRL-OH) | ≤ 2 | 0.06 |
|  |  |  |  |  | > 128 |  |  |  |  |  | CC[C@H](C)[C@H](NC(=O)[C@H](Cc1ccc(O)cc1)NC(=O)[C@@H](NC(=O)[C@@H]1CCCN1C(=O)CN(CCCNC(=N)N)C(=O)[C@H](CC(N)=O)NC(=O)[C@H](CC(N)=O)NC(=O)CN)C(C)C)C(=O)N1CCC[C@H]1C(=O)N[C@@H](CCC(N)=O)C(=O)N1CCC[C@H]1C(=O)N(CCCNC(=N)N)CC(=O)N1CCC[C@H]1C(=O)N1CCC[C@H]1C(=O)N[C@@H](Cc1cnc[nH]1)C(=O)N1CCC[C@H]1C(=O)N(CCCNC(=N)N)CC(=O)N[C@@H](CC(C)C)C(=O)O (H-GNN[Gly(N-(CH2)3-guanidino)]PVYIPQP[Gly(N-(CH2)3-guanidino)]PPHP[Gly(N-(CH2)3-guanidino)]L-OH) |  | 0.06 |
| Not Active | 8 (≈ 16.9 µg/mL) | 4 (≈ 8.43 µg/mL) | 64 (≈ 135 µg/mL) | Not Active | 8 (≈ 16.9 µg/mL) | 8 (≈ 16.9 µg/mL) | 8 (≈ 16.9 µg/mL) |  | 8 (≈ 16.9 µg/mL) | Unstable | CC[C@H](C)[C@H](NC(=O)[C@H](Cc1ccc(O)cc1)NC(=O)[C@@H](NC(=O)[C@@H]1CCCN1C(=O)[C@H](CCCNC(=N)N)NC(=O)[C@H](CC(N)=O)NC(=O)[C@H](CC(N)=O)NC(=O)CN)C(C)C)C(=O)N1CCC[C@H]1C(=O)N[C@@H](CCC(N)=O)C(=O)N1CCC[C@H]1C(=O)N[C@@H](CCCNC(=N)N)C(=O)N1CCC[C@H]1C(=O)N1CCC[C@H]1C(=O)N[C@@H](Cc1cnc[nH]1)C(=O)N1CCC[C@H]1C(=O)N[C@@H](CCCNC(=N)N)C(=O)N[C@@H](CC(C)C)C(=O)O [APIDAECIN] | ≤ 2 | 1.19 |
